Here are results for 21 molecules from PubChem BioAssay AID330 (DTP/NCI, 2004).

Each structure is given as a SMILES string. “And” between values parts separate entries of the source, which are not always exact repeats. Equal values may be shown once. Toxic doses and inconclusive results are not listed.

For the experiment, the system named is P388 leukemia ip, CD2F1 mice, survival T/C. Put plainly: NCI In Vivo Anticancer Drug Screen. Data for tumor model P388 Leukemia (intraperitoneal) in CD2F1 (CDF1) mice. The note with it: endpoint: median survival time, higher = longer survival. An outline of the steps: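 Mice carrying the transplanted tumor received test compound or vehicle. Survival was recorded in each group, and the value is the treated-group measurement divided by that of the vehicle-treated control group.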

[1] abbreviates: dose: 50.0 mg/kg/injection, schedule: Q01DX009 (ip), vehicle: Klucel (hydroxypropylcellulose) (HPC).
Where [2] appears, read: dose: 12.5 mg/kg/injection, schedule: Q01DX009 (ip), vehicle: saline with Tween-80.
Where [3] appears, read: dose: 25.0 mg/kg/injection, schedule: Q01DX009 (ip), vehicle: saline with Tween-80.
Setting [4] is: dose: 60.0 mg/kg/injection, schedule: Q01DX005 (ip), vehicle: saline with Tween-80.
Where [5] appears, read: dose: 120.0 mg/kg/injection, schedule: Q01DX005 (ip), vehicle: saline with Tween-80.
[6] abbreviates: dose: 240.0 mg/kg/injection, schedule: Q01DX005 (ip), vehicle: saline with Tween-80.
Where [7] appears, read: dose: 50.0 mg/kg/injection, schedule: Q01DX005 (ip), vehicle: saline with Tween-80.
Where [8] appears, read: dose: 100.0 mg/kg/injection, schedule: Q01DX005 (ip), vehicle: saline with Tween-80.
Where [9] appears, read: dose: 200.0 mg/kg/injection, schedule: Q01DX005 (ip), vehicle: saline with Tween-80.
Setting [10] is: dose: 100.0 mg/kg/injection, schedule: Q04DX003 (ip), vehicle: saline with Tween-80.
Where [11] appears, read: dose: 200.0 mg/kg/injection, schedule: Q04DX003 (ip), vehicle: saline with Tween-80.

On to `COC(=O)c1[nH]cnc1/N=N\N(CCF)CCF`, for which the T/C (dose: 44.0 mg/kg/injection, schedule: Q04DX003 (ip), vehicle: saline with Tween-80) was 155 % of control and the T/C (dose: 66.0 mg/kg/injection, schedule: Q04DX003 (ip), vehicle: saline with Tween-80) is 110 % of control.
As to `CCn1c2ccccc2c2cc(N=Nc3cc4cc5ccccc5cc4cc3N)ccc21`, the T/C is, setting by setting: (dose: 100.0 mg/kg/injection, schedule: Q04DX003 (ip), vehicle: Klucel (hydroxypropylcellulose) (HPC)) 101 % of control; (dose: 200.0 mg/kg/injection, schedule: Q04DX003 (ip), vehicle: Klucel (hydroxypropylcellulose) (HPC)) 93 % of control.
As to `CCNSc1ccccc1`, under setting [1], the T/C was 106 % of control.
Take `Clc1ccc(-c2csc3cccc[n+]23)cc1`: the T/C is 103 % of control (dose: 12.5 mg/kg/injection, schedule: Q01DX009 (ip), vehicle: Klucel (hydroxypropylcellulose) (HPC)); 100 % of control (dose: 25.0 mg/kg/injection, schedule: Q01DX009 (ip), vehicle: Klucel (hydroxypropylcellulose) (HPC)); 103 % of control under setting [1].
Consider `CC1(C)COC(c2cc(Br)ccc2Br)=N1`, for which the T/C is 100 % of control under setting [2]; 102 % of control under setting [3]; 97 % of control (dose: 50.0 mg/kg/injection, schedule: Q01DX009 (ip), vehicle: saline with Tween-80); 97 % of control (dose: 100.0 mg/kg/injection, schedule: Q01DX009 (ip), vehicle: saline with Tween-80); 101 % of control (dose: 200.0 mg/kg/injection, schedule: Q01DX009 (ip), vehicle: saline with Tween-80).
As to `Cc1nc2n[nH]c(N)c2nc1C`, the T/C (dose: 100.0 mg/kg/injection, schedule: Q04DX003 (ip), vehicle: saline) was 100 % of control; the T/C (dose: 200.0 mg/kg/injection, schedule: Q04DX003 (ip), vehicle: saline) is 104 % of control; the T/C (dose: 400.0 mg/kg/injection, schedule: Q04DX003 (ip), vehicle: saline) is 95 % of control.
Take `ClC(Cl)Cl`: the T/C was 100 % of control (dose: 0.25 % in 0.5 ml injection vol, schedule: Q01DX009 (ip), vehicle: water); 96 % of control (dose: 0.5 % in 0.5 ml injection vol, schedule: Q01DX009 (ip), vehicle: water); 100 % of control (dose: 1.0 % in 0.5 ml injection vol, schedule: Q01DX009 (ip), vehicle: water).
For `O=C(NCC1CC1)c1ccccc1NC(=O)c1cc2ccccc2oc1=O`, the T/C is 100 % of control under setting [4], 100 % of control under setting [5] and 108 % of control under setting [6].
As for `CCOC(=O)C[N+]12CCC34c5ccccc5N5C(=O)CC6OCC=C(C1)C(CC32)C6C54` (centres undefined), the T/C is, setting by setting: under setting [2], 113 % of control; under setting [3], 106 % of control.
For the molecule `Cc1ncc(CNC(=O)N(CCCl)N=O)c(N)n1`, the T/C runs as follows: (dose: 10.0 mg/kg/injection, schedule: Q01DX001 (ip), vehicle: saline) 191 % of control; (dose: 20.0 mg/kg/injection, schedule: Q01DX001 (ip), vehicle: saline) 260 % of control and 336 % of control; (dose: 30.0 mg/kg/injection, schedule: Q01DX001 (ip), vehicle: saline) 517 % of control; (dose: 40.0 mg/kg/injection, schedule: Q01DX001 (ip), vehicle: saline) 120 % of control and 260 % of control.
As for `O=C1CC(C2OCOC3COCOC32)CC(=O)N1` (centres undefined), the T/C was 111 % of control (dose: 60.0 mg/kg/injection, schedule: Q01DX005 (ip), vehicle: Klucel (hydroxypropylcellulose) (HPC)); 109 % of control (dose: 120.0 mg/kg/injection, schedule: Q01DX005 (ip), vehicle: Klucel (hydroxypropylcellulose) (HPC)); 100 % of control (dose: 240.0 mg/kg/injection, schedule: Q01DX005 (ip), vehicle: Klucel (hydroxypropylcellulose) (HPC)).
As to `Cc1ccccc1NP1(=O)OCCCN1Cc1ccc(Cl)c(Cl)c1` (centres undefined), the T/C by setting is: under setting [7], 100 % of control; under setting [8], 98 % of control; under setting [9], 93 % of control.
With `C[Si](C)(C)c1ccccn1`, the T/C is, setting by setting: under setting [4], 108 % of control; under setting [5], 103 % of control; under setting [6], 113 % of control.
Consider `O=C(O)CCCCc1ccc(CCCCC(=O)O)c2ccccc12`, for which the T/C runs as follows: under setting [10], 103 % of control; under setting [11], 102 % of control; (dose: 400.0 mg/kg/injection, schedule: Q04DX003 (ip), vehicle: saline with Tween-80) 99 % of control.
Turning to `CC1C(c2ccccc2)NC(c2ccccc2)C(C)C1(O)c1ccccc1` (centres undefined), the T/C is, setting by setting: under setting [7], 107 % of control; under setting [8], 107 % of control.
Consider `O=NN(CCCl)C(=O)Nc1c[nH]c(=O)[nH]c1=O`, for which the T/C was 95 % of control (dose: 0.01 mg/kg/injection, schedule: Q04DX003 (ip), vehicle: saline with Tween-80); 100 % of control (dose: 0.02 mg/kg/injection, schedule: Q04DX003 (ip), vehicle: saline with Tween-80); 100 % of control (dose: 0.04 mg/kg/injection, schedule: Q04DX003 (ip), vehicle: saline with Tween-80); 150 % of control (dose: 0.5 mg/kg/injection, schedule: Q04DX003 (ip), vehicle: saline); 159 % of control (dose: 1.0 mg/kg/injection, schedule: Q04DX003 (ip), vehicle: saline); 172 % of control (dose: 2.0 mg/kg/injection, schedule: Q04DX003 (ip), vehicle: saline). For the same molecule, the T/C was 195 % of control (dose: 3.0 mg/kg/injection, schedule: Q04DX003 (ip), vehicle: saline with Tween-80); 227 % of control (dose: 3.13 mg/kg/injection, schedule: Q01DX009 (ip), vehicle: saline with Tween-80); 213 % of control (dose: 6.0 mg/kg/injection, schedule: Q04DX003 (ip), vehicle: saline with Tween-80); 227 % of control (dose: 6.25 mg/kg/injection, schedule: Q01DX009 (ip), vehicle: saline with Tween-80); 191 % of control (dose: 8.0 mg/kg/injection, schedule: Q04DX003 (ip), vehicle: saline with Tween-80); 166 % of control (dose: 12.0 mg/kg/injection, schedule: Q04DX003 (ip), vehicle: saline with Tween-80). In addition, the T/C was 109 % of control under setting [2]; 219 % of control (dose: 12.5 mg/kg/injection, schedule: Q04DX003 (ip), vehicle: saline with Tween-80); 191 % of control (dose: 18.0 mg/kg/injection, schedule: Q04DX003 (ip), vehicle: saline with Tween-80); 100 % of control (dose: 30.0 mg/kg/injection, schedule: Q01DX009 (ip), vehicle: saline with Tween-80).
For `CCCCOC(=O)CSSCC(=O)OCCCC`, the T/C runs as follows: (dose: 50.0 mg/kg/injection, schedule: Q04DX003 (ip), vehicle: saline with Tween-80) 109 % of control; under setting [10], 109 % of control; under setting [11], 109 % of control.
For the molecule `COc1ccc(/C(O)=C/c2nc3ccc([N+](=O)[O-])cc3[nH]c2=O)cc1`, the T/C is, setting by setting: (dose: 60.0 mg/kg/injection, schedule: Q01DX005 (ip), vehicle: Klucel + Tween-80) 97 % of control; (dose: 120.0 mg/kg/injection, schedule: Q01DX005 (ip), vehicle: Klucel + Tween-80) 94 % of control; (dose: 240.0 mg/kg/injection, schedule: Q01DX005 (ip), vehicle: Klucel + Tween-80) 95 % of control.
In the case of `COc1cc2c(cc1OC)[C@]13C[C@@H](OC)C=CC14OC4CN3CCC2` (some centres undefined), the T/C is, setting by setting: (dose: 20.0 mg/kg/injection, schedule: Q01DX009 (ip), vehicle: saline with Tween-80) 90 % of control; (dose: 40.0 mg/kg/injection, schedule: Q01DX009 (ip), vehicle: saline with Tween-80) 95 % of control; (dose: 80.0 mg/kg/injection, schedule: Q01DX009 (ip), vehicle: saline with Tween-80) 90 % of control; (dose: 150.0 mg/kg/injection, schedule: Q01DX009 (ip), vehicle: saline with Tween-80) 122 % of control.
On to `CC1=C(CN(CC(=O)O)CC(=O)O)C(=O)C(C(C)C)=C/C1=C(\c1ccccc1S(=O)(=O)O)c1cc(C(C)C)c(O)c(CN(CC(=O)O)CC(=O)O)c1C`, for which the T/C is 108 % of control (dose: 50.0 mg/kg/injection, schedule: Q01DX009 (ip), vehicle: saline); 104 % of control (dose: 100.0 mg/kg/injection, schedule: Q01DX009 (ip), vehicle: saline); 103 % of control (dose: 200.0 mg/kg/injection, schedule: Q01DX009 (ip), vehicle: saline).
As to `CC(C)c1cccc(C(C)C)c1NC(=O)CCc1n[nH]c(=S)o1`, the T/C was 105 % of control under setting [7], 106 % of control under setting [8] and 105 % of control under setting [9].
